Patent publication US11957680B2, “Pyruvate kinase activators for use in treating blood disorders” (Agios Pharmaceuticals, Inc., priority 2017, dated 2024)

Columns and labels:
wild type PKR [1] = target: T1, wild type PKR (Homo sapiens, UniProt P30613); experiment: PKR (wild type) enzyme AC50 assay, LDH/NADH-coupled, absorbance at 340 nm; assay type: biochemical; conditions: for AC50: Table 2, enzyme assay, read-out: PKR WT AC50; for EC50: Table 4, AC50, enzyme assay, read-out: PKR WT
Method: (§1) Example 11. PKR Mutant Assay
(§2) PKR or PKR mutant enzyme solution was diluted into a reaction mix, which contains 1× buffer (100 mM KCl, 50 mM Tris pH 7.5, 5 mM MgCl2) as well as PEP (conc depends on enzyme), 180 μM NADH, 0.5 units LDH, 1 mM DTT, 0.03% BSA; final assay concentrations after 1.11 fold dilution are indicated.
(§3) 2 μL of test compound was added into wells first, and then 180 μL reaction mix was added.
(§4) Reactions mixture with test compound was assembled except for ADP, and plates were stored for 60 minutes at room temperature.
(§5) 20 uL ADP was added to start reaction at room temperature and reaction progress was measured as changes in absorbance at 340 nm wavelength at room temperature.
(§6) Test Compound Preparation:
(§7) Test compound stock was made at 100× concentration in 100% DMSO (10 mM)
(§8) 1 to 3 dilutions were made for 11 points (i.e. 50 μl of first concentration added to 100 μl 100% DMSO to yield 3.33 mM, 50 μl of this added to 100 μl DMSO to yield 1.11 mM, and so forth) • 1 to 100 dilution into assay (2 μl in 200 μl) yielded starting concentration of 100 μM, decreasing 3 fold for 11 points.
(§9) Assay Buffer: 100 mM KCl, 50 mM Tris 7.5, 5 mM MgCl2, 1 mM DTT, 0.03% BSA
(§10) Reaction Mixture: PKR mutant enzyme: 40-400 ng/well; ADP: 0.2-1.65 mM; PEP: 0.1-0.5 mM; NADH: 180 μM; LDH: 0.5 units (Sigma #59023); DTT: 1 mM; BSA: 0.03%.

PKR K410E = PKR K410E (Homo sapiens, UniProt P30613, K410E); experiment: PKR mutant assay (K410E), AC50, LDH/NADH-coupled, absorbance at 340 nm; assay type: biochemical; conditions: for AC50: Table 2, enzyme assay; for EC50: Table 4, AC50, enzyme assay
Chain of PKR K410E (P30613 whole entry K410E): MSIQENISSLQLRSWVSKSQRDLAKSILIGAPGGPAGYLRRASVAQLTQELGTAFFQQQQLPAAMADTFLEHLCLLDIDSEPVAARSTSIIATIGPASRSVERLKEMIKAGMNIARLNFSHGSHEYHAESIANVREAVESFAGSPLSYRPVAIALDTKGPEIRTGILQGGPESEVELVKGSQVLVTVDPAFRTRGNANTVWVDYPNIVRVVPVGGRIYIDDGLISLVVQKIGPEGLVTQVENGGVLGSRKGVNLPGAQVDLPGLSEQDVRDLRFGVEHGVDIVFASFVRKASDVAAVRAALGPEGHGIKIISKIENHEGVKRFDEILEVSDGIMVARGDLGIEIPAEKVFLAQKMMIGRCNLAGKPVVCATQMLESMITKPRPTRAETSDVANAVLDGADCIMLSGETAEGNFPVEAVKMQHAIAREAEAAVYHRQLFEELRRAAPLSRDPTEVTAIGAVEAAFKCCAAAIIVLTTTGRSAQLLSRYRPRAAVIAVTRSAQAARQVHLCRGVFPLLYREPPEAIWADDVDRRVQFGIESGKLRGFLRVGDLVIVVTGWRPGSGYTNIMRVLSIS
Method: as §1, §2, §3, §4, §5, §6, §7, §8, §9, §10

PKR R510Q = PKR R510Q (Homo sapiens, UniProt P30613, R510Q); experiment: PKR mutant assay (R510Q), AC50, LDH/NADH-coupled, absorbance at 340 nm; assay type: biochemical; conditions: for AC50: read-out: PK R510Q AC50; for EC50: Table 4, AC50, enzyme assay, read-out: PK R510Q
Chain of PKR R510Q (P30613 whole entry R510Q): as the sequence (P30613 whole entry K410E) above, with E410K, R510Q counted along it
Method: as §1, §2, §3, §4, §5, §6, §7, §8, §9, §10

wild type PKR [2] = target: T1, wild type PKR; experiment: Cell based ATP assay in purified red blood cells (Cell-Titer-Glo); set-up: endogenous in cells; host or cells: purified red blood cells from healthy volunteers; conditions: overnight at 37° C., ATP levels; for EC50: Table 4, AC50, RBCs
Method: Example 16. Red Blood Cell (RBC) Purification
Fresh blood drawn from healthy volunteers into K2EDTA tubes was collected. Whole blood was pelleted by spinning at 500 g for 10 minutes. Cut transfusion bag port off of Purecell leukocyte reduction neofilter (Fisher NC0267633) one (1) inch above filter. Attach a 10 ml syringe barrel to the remaining cut tubing attached to neofilter. The plasma layer was removed from the pellet of the whole blood and the pellet was resuspended in 2× volume of phosphate buffered saline (PBS). Transfer 9 ml re-suspended blood cell pellet to prepared 10 ml syringe that is attached to the neofilter. Allow whole blood to gravity flow through filter until all fluid runs through upper tubing into filter disc. Add plunger to the syringe, remove syringe from clamp and invert the filter, then plunge air through the syringe filter system. Using a new 5 ml syringe, remove filtered RBCs from the bag by the syringe port and transfer purified RBCs to a 5 ml snap cap tube that has been incubated on ice. Spin 5 ml snap cap tube at 500 g for 10 minutes at 15 C, aspirate supernatant and resuspend in AGAM (1×PBS, 1% glucose, 170 mg/L adenine, 5.25 g/L mannitol) at a density of 4×10^9 cells/mL.
Example 17. Cell Based ATP Assay
For cell based ATP assays, the compound as described herein was prepared in 100% DMSO as a 10 mM stock. Serial dilutions (1:4) were performed in 96-well V-bottom storage plate and then added 1:100 to 96-well V-bottom plates containing AGAM. RBCs were diluted in AGAM media to a density of 1×10^7 cells/mL before added 90 μL/well to black clear bottom assay plates (final compound concentration at 0.1% DMSO concentration). Assay plates were sealed using aluminum foil seals and incubated overnight at 37° C. in a humidified chamber. ATP levels were read out using Cell-Titer-Glo (Promega).

T1 sequence (P30613 whole entry): as the sequence (P30613 whole entry K410E) above, with E410K counted along it

| SMILES | AC50 (wild type PKR [1]) [nM] | AC50 (PKR K410E) [nM] | AC50 (PKR R510Q; Table 2, enzyme assay) [nM] | AC50 (wild type PKR [2]; Table 2, RBCs) [nM] | EC50 (wild type PKR [1]) [nM] | EC50 (PKR K410E) [nM] | EC50 (PKR R510Q) [nM] | EC50 (wild type PKR [2]) [nM] | PK R510Q AC50 (PKR R510Q; Table 2, enzyme assay) | Cell based ATP assay AC50 (wild type PKR [2]; Table 2, RBCs) |
| --- | --- | --- | --- | --- | --- | --- | --- | --- | --- | --- |
| COc1cccc(Cn2ncc3c4sc(S(C)(=O)=O)nc4n(C)c3c2=O)c1 [Compound 25] | < 300 | < 300 | < 300 | > 1000 |  |  |  |  |  |  |
| Cn1c2nc([S+](C)[O-])sc2c2cnn(Cc3ccc4ccccc4n3)c(=O)c21 (stereo not drawn) [Compound 102] | < 300 | < 300 | < 300 | ≤ 1000 |  |  |  |  |  |  |
| CC(=O)NCc1nc2c(s1)c1cnn(Cc3cccc4[nH]ncc34)c(=O)c1n2C [Compound 139] | < 300 | < 300 | < 300 | ≤ 1000 |  |  |  |  |  |  |
| Cn1c2nc(Cc3cc[nH]n3)sc2c2cnn(Cc3cccc(C(N)=O)c3)c(=O)c21 [Compound 183] | < 300 | < 300 | < 300 | ≤ 1000 |  |  |  |  |  |  |
| COC(=O)Cc1nc2c(s1)c1cnn(Cc3cccc4[nH]ncc34)c(=O)c1n2C [Compound 131] | 301 to 800 | < 300 | < 300 | > 1000 |  |  |  |  |  |  |
| CNc1ccc(Cn2ncc3c4sc(C)nc4n(C)c3c2=O)cc1 [Compound 69] | > 800 | > 800 | 301 to 800 | > 1000 |  |  |  |  |  |  |
| Cn1c2nc(C3(c4ccccc4)CC3)sc2c2cnn(Cc3cccc4[nH]ncc34)c(=O)c21 [Compound 140] | > 800 | > 800 | > 800 | > 1000 |  |  |  |  |  |  |
| COc1cccc(Cn2ncc3c4sc(Cc5ccc(F)cc5)nc4n(C)c3c2=O)c1 [Compound 59] | < 300 | < 300 | < 300 | ≤ 1000 |  |  |  |  |  |  |
| Cn1c2nc(Cc3cc[nH]n3)sc2c2cnn(Cc3ccc4ccccc4n3)c(=O)c21 [Compound 111] | < 300 | < 300 | < 300 | ≤ 1000 |  |  |  |  |  |  |
| Cn1c2nc(Cc3ncsc3CO)sc2c2cnn(Cc3cccc4[nH]ncc34)c(=O)c21 [Compound 167] | < 300 | < 300 | < 300 | ≤ 1000 |  |  |  |  |  |  |
| Cn1c2nc(Cc3cc[nH]n3)sc2c2cnn(Cc3ccc4c(F)c[nH]c4n3)c(=O)c21 [Compound 383] |  |  |  |  | < 300 | < 300 | < 300 | ≤ 1000 |  |  |
| Cc1nc2c(s1)c1cnn(CCOCCO)c(=O)c1n2C [Compound 54] | > 800 | > 800 |  |  |  |  |  |  | No Fit | No Fit |
| Cn1ccc(Cn2ncc3c4sc(CCc5cc[nH]n5)nc4n(C)c3c2=O)n1 [Compound 393] |  |  |  |  | < 300 | < 300 | < 300 | ≤ 1000 |  |  |
| O=c1c2c(cnn1Cc1ccccc1)c1sc(Cc3cc[nH]n3)nc1n2C1CC1 [Compound 408] |  |  |  |  | > 800 | > 800 | 301 to 800 | > 1000 |  |  |
| Cn1c2nc([S+](C)[O-])sc2c2cnn(Cc3cccc(C(C)(C)O)c3)c(=O)c21 (stereo not drawn) [Compound 87] | < 300 | < 300 | 301 to 800 | ≤ 1000 |  |  |  |  |  |  |
| Cn1c2nc(CCO)sc2c2cnn(Cc3cccc4[nH]ncc34)c(=O)c21 [Compound 124] | < 300 | < 300 | < 300 | ≤ 1000 |  |  |  |  |  |  |
| Cn1c2nc(NCc3ccccc3)sc2c2cnn(Cc3cccc4[nH]ncc34)c(=O)c21 [Compound 149] | 301 to 800 | 301 to 800 | 301 to 800 | > 1000 |  |  |  |  |  |  |
| Cn1c2nc(Cc3ccns3)sc2c2cnn(Cc3cccc4[nH]ncc34)c(=O)c21 [Compound 209] |  |  |  |  | > 800 | > 800 | > 800 | ≤ 1000 |  |  |
